Results on two molecules are retold here after article PMC11189301, “Structure of the human outer kinetochore KMN network complex” (Nature Structural & Molecular Biology, 2024).

The test system of one data set is MIS12 complex. Further details: method as in PMID 24530301. As to conditions: compared with Nsl1 C-terminal peptide (residues 258–281); cited from earlier work.
The next data set relates to Knl1. Kind of data set: SEC assessment of MIS12C^Nsl1ΔC binding to Knl1. The conditions noted are these: MIS12C^Nsl1ΔC (Nsl1 residues 265–281 deleted) + KNL1 at 4 µM each; 20 mM HEPES pH 7.8, 150 mM NaCl, 0.5 mM TCEP; Superose 6; at least two repeats. Further details: species or system Homo sapiens. Here is the method:
Assessment of substitutions in the MIS12C–KNL1 interfaces
To test the effect of substitutions in the MIS12C–KNL1 interfaces, either wild-type MIS12C or MIS12C^Nsl1ΔC was mixed with either wild-type KNL1 or two mutants (KNL1^R2248D […] (KNL1^mut1), KNL1^S2270R S2272W (KNL1^mut2)) at 4 µM each in a buffer of 20 mM HEPES (pH 7.8), 150 mM NaCl and 0.5 mM TCEP, and 50 µl was loaded onto a Superose 6 size-exclusion column (Cytiva).
Extended Data Fig. 9 Biochemical validation of the MIS12C:Knl1 interface. a Coomassie blue-stained SDS-PAGE gels of the MIS12C:Knl1 interaction reconstitutions. MIS12C (WT) and MIS12C with Nsl1 truncated at the C-terminus (1–264 Nsl1 construct, MIS12C^Nsl1ΔC) were tested in their ability to bind either wild-type RWD domains of Knl1 (2131–2337 construct, labelled Knl1 for simplicity) or Knl1 mutants (R2248D/W2249S substitutions, Knl1^mut1, and S2270R/S2272W substitutions, Knl1^mut2, as well as S2270R/S2272W/R2248A/W2249S substitutions, Knl1^mut3). The binding experiments were repeated at least two independent times with identical results. The gels are aligned according to the fraction number of the protein sample eluted from the size exclusion column. b SEC elution chromatograms of all of the experiments described in (a). Source data

Regarding “Knl1: outer kinetochore protein Knl1; prior affinity data of ref 11”, in the data set with MIS12 complex, the “affinity of Knl1 for the whole MIS12 complex, in words” value was “only slightly higher than its affinity for a peptide modeled on the C terminus of Nsl1 alone (residues 258–281)”.

B1: MIS12C^Nsl1ΔC: MIS12C with Nsl1 truncated at the C-terminus (1–264 Nsl1 construct; residues 265–281 deleted) (protein)
chain 1: MSVDPMTYEAQFFGFTPQTCMLRIYIAFQDYLFEVMQAVEQVILKKLDGIPDCDISPVQIRKCTEKFLCFMKGHFDNLFSKMEQLFLQLILRIPSNILLPEDKCKETPYSEEDFQHLQKEIEQLQEKYKTELCTKQALLAELEEQKIVQAKLKQTLTFFDELHNVGRDHGTSDFRESLVSLVQNSRKLQNIRDNVEKESKRLKIS
chain 2: MAEASSANLGSGCEEKRHEGSSSESVPPGTTISRVKLLDTMVDTFLQKLVAAGSYQRFTDCYKCFYQLQPAMTQQIYDKFIAQLQTSIREEISDIKEEGNLEAVLNALDKIVEEGKVRKEPAWRPSGIPEKDLHSVMAPYFLQQRDTLRRHVQKQEAENQQLADAVLAGRRQVEELQLQVQAQQQAWQALHREQRELVAVLREPE
chain 3: MTSVTRSEIIDEKGPVMSKTHDHQLESSLSPVEVFAKTSASLEMNQGVSEERIHLGSSPKKGGNCDLSHQERLQSKSLHLSPQEQSASYQDRRQSWRRASMKETNRRKSLHPIHQGITELSRSISVDLAESKRLGCLLLSSFQFSIQKLEPFLRDTKGFSLESFRAKASSLSEELKHFADGLETDGTLQKCFEDSNGKASDFSLEASVAEMKEYITKFSLERQTWDQLLLHYQQEAKEILSRGSTEAKITEVKVEPMTYLGSSQNEVLNTKPDYQKILQNQSKVFDCMELVMDELQGSVKQLQAFMDESTQCFQKVSVQLGKRSMQQLDPSPARKLLKLQLQNPPAIHGSGSGSCQ
chain 4: MAGSPELVVLDPPWDKELAAGTESQALVSATPREDFRVRCTSKRAVTEMLQLCGRFVQKLGDALPEEIREPALRDAQWTFESAVQENISINGQAWQEASDNCFMDSDIKVLEDQFDEIIVDIATKRKQYPRKILECVIKTIKAKQEILKQYHPVVHPLDLKYDPDPAPHMENLKCRGETVAKEISEAMKSLPALIEQGEGFSQVLRMQPVIHLQRIHQEVFSSCHRKPDAKPENFITQIETTPTETASRKTSDMVLKRKQTKDC
modifications: left off: double strep II (DS), C-terminal, state not stated
Take B1: the “MIS12C–Knl1 interaction by SEC, in words” value with Knl1 was “reduced the interaction strength between Knl1 and MIS12C”.
